From US8058475B2, “Substituted cyclohexylmethyl compounds” (Gruenenthal GmbH, priority 2005, dated 2011) come the findings set out here.

The target in the test is human μ-opiate receptor (Homo sapiens, UniProt P35372). Put plainly: Affinity for the human μ-opiate receptor ([3H]-naloxone displacement, SPA, CHO-K1 membrane preparation). The test is classed as binding. Conditions: for Ki: read-out: μ-Opioid receptor, Ki; for inhibition at 1 µM: read-out: μ-Opioid receptor, % inhibition [1 μM].

Structures are written as SMILES. Read-outs that look alike come from different tables or passages of the source.

Sequence of human μ-opiate receptor (P35372 whole entry): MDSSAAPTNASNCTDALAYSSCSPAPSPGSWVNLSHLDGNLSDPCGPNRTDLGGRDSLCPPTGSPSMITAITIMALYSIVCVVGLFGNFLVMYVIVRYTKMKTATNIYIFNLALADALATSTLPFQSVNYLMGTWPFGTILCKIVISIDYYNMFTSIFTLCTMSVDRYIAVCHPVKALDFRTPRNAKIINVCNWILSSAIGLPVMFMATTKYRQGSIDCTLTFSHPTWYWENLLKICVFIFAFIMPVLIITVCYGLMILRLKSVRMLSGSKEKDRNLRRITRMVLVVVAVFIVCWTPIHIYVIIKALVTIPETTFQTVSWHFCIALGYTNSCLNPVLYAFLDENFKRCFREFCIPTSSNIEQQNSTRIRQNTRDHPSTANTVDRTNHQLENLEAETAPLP

Turning to `CN(C)C(c1ccccc1)C1CCC(NC(=O)c2cncc(Br)c2)CC1` (stereo not shown) [compound 259, 5-bromo-N-[4-(dimethylamino-phenyl-methyl)-cyclohexyl]-nicotinamide], the Ki turned out to be 62 nM. Moreover, the “μ-Opioid receptor, % inhibition [1 μM]” value (1 µM) is on record as 79%.
`CN(C)C(c1cccs1)C1CCC(NC(=O)c2cc(Cl)cc(Cl)c2)CC1` (stereo not shown) [compound 194, 3,5-dichloro-N-[4-(dimethylamino-thiophen-2-yl-methyl)-cyclohexyl]-benzamide]: the inhibition at 1 µM turned out to be 96% and the Ki was determined as 5.3 nM.
On to `Cc1cccc(C(=O)NC2CCC(C(CCc3ccccc3)N(C)C)CC2)c1` (stereo not shown) [compound 248, N-[4-(1-dimethylamino-3-phenyl-propyl)-cyclohexyl]-3-methyl-benzamide], for which the inhibition at 1 µM turned out to be 81% and the Ki is 88 nM.
Consider `CN(C)C(c1ccc(F)cc1)C1CCC(NC(=O)c2cc(F)c(F)cc2F)CC1` (stereo not shown) [compound 271, N-{4-[dimethylamino-(4-fluoro-phenyl)-methyl]-cyclohexyl}-2,4,5-trifluoro-benzamide], for which the inhibition at 1 µM stood at 75% and the Ki was 19 nM.
For `CN(C)C(c1cccs1)C1CCC(CCNC(=O)c2ccccc2F)CC1` (stereo not shown) [compound 428, N-{2-[4-(dimethylamino-thiophen-2-yl-methyl)-cyclohexyl]-ethyl}-2-fluoro-benzamide] the same measures were 97% and 5.4 nM.
For `CN(C)C(c1ccccc1)C1CCC(NC(=O)C23CC4CC(CC(C4)C2)C3)CC1` (stereo not shown) [compound 236, adamantane-1-carboxylic acid [4-(dimethylamino-phenyl-methyl)-cyclohexyl]-amide] the same measures were 83% and 63 nM.
As for `Cc1nc(-c2ccccc2)sc1C(=O)NC1CCC(C(c2ccccc2)N(C)C)CC1` (stereo not shown) [compound 238, 4-methyl-2-phenyl-thiazole-5-carboxylic acid [4-(dimethylamino-phenyl-methyl)-cyclohexyl]-amide], the inhibition at 1 µM turned out to be 83% and the Ki came out at 38 nM.
With `CN(C)C(CCc1ccccc1)C1CCC(NC(=O)c2cc(F)ccc2F)CC1` (stereo not shown) [compound 276, N-[4-(1-dimethylamino-3-phenyl-propyl)-cyclohexyl]-2,5-difluoro-benzamide], the inhibition at 1 µM was found to be 74% and the Ki turned out to be 65 nM.
With `CN(C)C(c1ccc(F)cc1)C1CCC(CCNC(=O)c2cccc(Br)c2)CC1` (stereo not shown) [compound 459, 3-bromo-N-(2-{4-[dimethylamino-(4-fluoro-phenyl)-methyl]-cyclohexyl}-ethyl)-benzamide], the inhibition at 1 µM was determined as 90% and the Ki was found to be 31 nM.
For the compound `COc1ccccc1C(=O)NC1CCC(C(c2cccs2)N(C)C)CC1` (stereo not shown) [compound 207, N-[4-(dimethylamino-thiophen-2-yl-methyl)-cyclohexyl]-2-methoxy-benzamide], the inhibition at 1 µM was 92% and the Ki amounted to 28 nM.
For `CN(C)C(CCc1ccccc1)C1CCC(NC(=O)c2cccc(Br)c2)CC1` (stereo not shown) [compound 277, 3-bromo-N-[4-(1-dimethylamino-3-phenyl-propyl)-cyclohexyl]-benzamide], the inhibition at 1 µM was 74% and the Ki stood at 74 nM.
In the case of `CCSc1ncccc1C(=O)NCC1CCC(C(c2ccc(Cl)cc2)N(C)C)CC1` (stereo not shown) [compound 351, N-{4-[(4-chloro-phenyl)-dimethylamino-methyl]-cyclohexylmethyl}-2-ethyl-sulfanyl-nicotinamide], the “μ-Opioid receptor, % inhibition [1 μM]” value was 89% and the Ki came to 58 nM.
For the compound `CN(C)C(c1cccs1)C1CCC(CNC(=O)c2cccc(C#N)c2)CC1` (stereo not shown) [compound 347, 3-cyano-N-[4-(dimethylamino-thiophen-2-yl-methyl)-cyclohexylmethyl]-benzamide], the inhibition at 1 µM is 90% and the Ki was found to be 26 nM.
For `Cc1ccc(Oc2ncccc2C(=O)NCC2CCC(C(c3cccs3)N(C)C)CC2)cc1` (stereo not shown) [compound 352, N-[4-(dimethylamino-thiophen-2-yl-methyl)-cyclohexylmethyl]-2-p-tolyloxy-nicotinamide], the inhibition at 1 µM was 87%.
Take `CCCC(=O)N(c1ccccc1)C1CCC(C(c2ccccc2)N(C)C)CC1` (stereo not shown) [compound 180, N-(4-((dimethylamino)(phenyl)methyl)cyclohexyl)-N-phenylbutyramide]: the inhibition at 1 µM is 90%.
For `COc1ccccc1C(=O)NCCC1CCC(C(c2cccc(F)c2)N(C)C)CC1` (stereo not shown) [compound 415, N-(2-{4-[dimethylamino-(3-fluoro-phenyl)-methyl]-cyclohexyl}-ethyl)-2-methoxy-benzamide], the inhibition at 1 µM is 99% and the Ki was determined as 5.1 nM.
In the case of `COc1ccccc1C(=O)NCCC1CCC(C(c2ccccc2)N(C)C)CC1` (stereo not shown) [compound 414, N-{2-[4-(dimethylamino-phenyl-methyl)-cyclohexyl]-ethyl}-2-methoxy-benzamide], the inhibition at 1 µM worked out at 99% and the inhibitory constant (Ki) was found to be 4.6 nM.
Consider `CN(C)C(c1ccc(Cl)cc1)C1CCC(CNC(=O)c2csc3ccccc23)CC1` (single isomer, unassigned) [compound 336, benzo[b]thiophene-3-carboxylic acid {4-[(4-chloro-phenyl)-dimethylamino-methyl]-cyclohexylmethyl}-amide], for which the inhibition at 1 µM is 92% and the Ki was 39 nM.
The like results for `COc1c(C(=O)NCCC2CCC(C(c3ccccc3)N(C)C)CC2)csc1Cl` (stereo not shown) [compound 474, 5-chloro-4-methoxy-thiophene-3-carboxylic acid {2-[4-(dimethylamino-phenyl-methyl)-cyclohexyl]-ethyl}-amide] were, in that order, 100% and 2.7 nM.
Regarding `CCCCCC1(O)CCC(C(c2cccc(F)c2)N(C)C)CC1` (stereo not shown) [compound 154, 4-[dimethylamino-(3-fluoro-phenyl)-methyl]-1-pentyl-cyclohexanol], the inhibition at 1 µM (1 μM test substance, inhibition of specific [3H]-naloxone binding) came out at 50%.
As for `CN(C)C(c1ccccc1)C1CCC(CCNC(=O)c2cc3ccccc3s2)CC1` (stereo not shown) [compound 457, benzo[b]thiophene-2-carboxylic acid {2-[4-(dimethylamino-phenyl-methyl)-cyclohexyl]-ethyl}-amide], the inhibition at 1 µM worked out at 91% and the Ki amounted to 40 nM.
`CCn1nc(C)c(Br)c1C(=O)NCC1CCC(C(c2ccccc2)N(C)C)CC1` (stereo not shown) [compound 390, 4-bromo-2-ethyl-5-methyl-2H-pyrazole-3-carboxylic acid [4-(dimethylamino-phenyl-methyl)-cyclohexylmethyl]-amide]: the inhibition at 1 µM was 81%.
With `COc1c(C(=O)NC2CCC(C(c3cccc(F)c3)N(C)C)CC2)csc1Cl` (stereo not shown) [compound 191, 5-chloro-4-methoxy-thiophene-3-carboxylic acid {4-[dimethylamino-(3-fluoro-phenyl)-methyl]-cyclohexyl}-amide], the inhibition at 1 µM turned out to be 99%.
As to `CN(C)C(c1cccs1)C1CCC(CNC(=O)c2cc(F)cc(C(F)(F)F)c2)CC1` (stereo not shown) [compound 308, N-[4-(dimethylamino-thiophen-2-yl-methyl)-cyclohexylmethyl]-3-fluoro-5-trifluoromethyl-benzamide], the inhibition at 1 µM was 98% and the inhibitory constant (Ki) was 7.4 nM.

As usually defined, the Ki is a dissociation constant, usually derived from enzyme kinetics or from competition with a known ligand. By inhibition is commonly meant the share of the control response that was lost under treatment.
